# Where two headings read alike, the source gives them in different places.
# Key:
# [1] = biological target: T1, M1 muscarinic receptors expressed in CHO cells (Homo sapiens, UniProt P11229); experiment: [3H]-arachidonic acid release screen with and without ACh and modulator; type: cell-based; details: 10 μM modulator
# T1 construct: expressed in transfected cells; host or cells: CHO (CHO-hM1, stably transfected)
# T1 sequence (P11229 1-460): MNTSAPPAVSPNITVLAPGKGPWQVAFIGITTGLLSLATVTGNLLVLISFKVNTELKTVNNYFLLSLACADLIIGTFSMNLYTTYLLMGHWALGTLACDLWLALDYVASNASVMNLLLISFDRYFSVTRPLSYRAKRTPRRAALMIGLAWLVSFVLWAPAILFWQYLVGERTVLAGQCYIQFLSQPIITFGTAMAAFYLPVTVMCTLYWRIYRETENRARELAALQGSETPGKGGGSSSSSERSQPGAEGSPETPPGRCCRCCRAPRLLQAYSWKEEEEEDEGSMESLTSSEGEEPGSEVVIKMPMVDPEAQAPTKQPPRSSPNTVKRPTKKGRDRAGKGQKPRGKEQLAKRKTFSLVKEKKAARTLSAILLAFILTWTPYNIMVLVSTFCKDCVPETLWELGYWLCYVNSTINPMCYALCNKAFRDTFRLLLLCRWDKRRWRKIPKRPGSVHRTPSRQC
# Experimental: CHO cells expressing human M1 muscarinic receptors were cultured at 37° C. in a 5% CO2 atmosphere in F12 medium supplemented with 5% fetal bovine serum, 100 units/mL penicillin, and 100 μg/mL streptomycin.
# Measurement of [^3H]AA release was performed. Stably transfected CHO-hM1 or CHO-hM3 cells were seeded on 24-well plates (Greiner Bio-One GmbH, Frickenhausen, Germany) at a density of 5.0×10^4 cells/well in 0.5 ml of F-12 medium. Cells were incubated until they attached (approximately 3 h), followed by the addition of [^3H]AA to a final concentration of 0.05 μCi of [^3H]AA per well. The cells were then grown for 16 to 20 h before the assay was performed. [^3H]AA release was measured in Eagle's basal medium with 20 mM HEPES and 2 mg/ml fatty acid-free bovine serum albumin (EM-BSA). Cells were rinsed twice with EM-BSA, followed by the addition of EM-BSA media containing experimental agents and incubated for 1 h at 37° C. The assay was terminated by aspiration of the media, and the amount of [^3H]AA released was determined by liquid scintillation counting (Beckman-Coulter LS6500).
# For some assays, pretreatment with phenoxybenzamine (POB) was employed, as indicated, to reduce the number of available receptors per cell. Stock POB was made up at 10 mM in ethanol and stored at −20° C. Each well was pretreated with 0.5 ml of the appropriate concentration in PBS with 1 mM CaCl2 and 1 mM MgCl2 (PBS++) for 30 min at 37° C., followed by 5 washes with PBS++. After pretreatment, the normal protocol was followed as above.
# Tabulated [^3H]AA release data are represented as a fraction of maximal release in the presence of 100 μM ACh or as the fraction of release elicited by the appropriate concentration of ACh alone, as indicated dose-response curves were normalized to the maximal response of ACh without allosteric ligand. Some response curves were analyzed using the empirical four-parameter equation: […]
# Disintegration per minute (DPM) values for a single compound were obtained in triplicate, and each compound was evaluated on three separate 24-well plates. The mean values for each condition from each of the three 24-well plates were used for the statistical analysis. The baseline mean was subtracted from each value, then normalized to the mean response produced by 100 μM ACh (set at 1.0). Statistical analyses were completed on the normalized values via one-way repeated measures ANOVA with Tukey's post hoc test. Statistically significant differences are noted as follows: *, p<0.05; **, p<0.01; ***, p<0.001.
# [2] = tested on: wild-type zebrafish larvae; experiment: Maximum tolerated concentration (MTC) determination in zebrafish larvae; type: in vivo, Danio rerio
# Experimental: Determination of maximum tolerated concentration was completed by placing 5 days post fertilization (dpf) wild-type zebrafish larvae in a 24 well plate at 6 fish per well, and one compound concentration per well. […] Death was determined by the absence of heartbeat. Additional endpoints were used to assess toxicity at non-lethal concentrations such as startle capacity (poke stimulus), abnormalities in swimming behavior (loss of dorsoventral balance), and gross morphological deformities (bent body). […] The MTC determination was used to select three doses of each compound (low, medium, high dose) to be used in behavioral assays.
# [3] = tested on: wild-type zebrafish larvae; experiment: General locomotor assay in zebrafish larvae (locomotor activity, repetitive behaviors); type: in vivo, Danio rerio; details: for response vs control in vivo at 10 µM: Danio rerio, Table 5, 10 μM concentration, N = 12
# Experimental: Five days post fertilization (dpf) zebrafish larvae were exposed to a range of nonlethal concentrations of the compounds in a 24-well plate with appropriate controls. The movement of each larval zebrafish was monitored with the Noldus behavior recording system (Noldus Information Technology, Leesburg VA) and quantified using EthoVision® XT 15 software (Noldus Information Technology, Leesburg VA). The plate was immediately placed in the incubator for a 30-minute exposure period. After 30 minutes, the plate was transferred to the Noldus system and swimming behavior was recorded in 100% light for 30 minutes to measure spontaneous swimming behavior. The light was switched off for 10 minutes (dark period) and then switched on for 10 minutes (light period), which was then repeated for two additional cycles. In total, the larvae were exposed to three cycles of alternating 10-minute dark and light periods (100% darkness-to-100% light). […]
# All data for exposure and the behavioral end points were analyzed by one-way ANOVA (factor: drug conc) followed by a Dunnett's multiple comparisons test for post hoc significance between drug concentration and control group. Statistically significant differences are noted as follows: *, p<0.05; **, p<0.01; ***, p<0.001.
# [4] = after 24-hour exposure, Table 3
# [5] = read-out: Variance of Turn Angle
# [6] = after 24-hour exposure in separate experiments, Table 5
SMILES,"Ratio of response of ACh with modulator to response of ACh alone, 0.1 μM ACh ([1]; Table 1)","Ratio of response of ACh with modulator to response of ACh alone, 100 μM ACh ([1]; Table 1)","Stimulation of [3H]AA release, No ACh (fraction of stimulation above the control) ([1]; Table 1)","Maximum Tolerated Concentration [2, 4] [µM]",response vs control in vivo at 10 µM ([3]; read-out: Angular Velocity) [%],response vs control in vivo at 10 µM ([3]; read-out: Total Distance Moved) [%],"response vs control in vivo at 10 µM [3, 5] [%]","Ratio of response of ACh with modulator to response of ACh alone, 0.1 μM ACh ([1]; Table 4, N = 4-5)","Ratio of response of ACh with modulator to response of ACh alone, 100 μM ACh ([1]; Table 4, N = 4-5)","Stimulation of [3H]AA release, No ACh (fraction of stimulation above the control) ([1]; Table 4, N = 4-5)","Maximum Tolerated Concentration [2, 6] [µM]","Effect on locomotor activity, angular velocity and turn angle (in words) ([3]; spontaneous swimming period)"
"COc1cc(CN2C(=O)C(=O)c3ccccc32)cc(OC)c1OC [Compound 8k, 1-(3,4,5-trimethoxybenzyl)indoline-2,3-dione]",1.37 ± 0.08,0.83 ± 0.01,0.03 ± 0.00,30,,,,,,,,
"O=C1C(=O)N(Cc2ccc(O)cc2)c2ccccc21 [Compound 10, 1-(4-hydroxybenzyl)indoline-2,3-dione]",1.60 ± 0.10,0.92 ± 0.06,0.01 ± 0.01,10,,,,,,,,
"CCCCc1oc2ccc(NS(C)(=O)=O)cc2c1C(=O)c1ccc(OCCCN(CCCC)CCCC)cc1 [Dronedarone, reference compound]",0.25 ± 0.05,0.75 ± 0.07,0.08 ± 0.01,10,,,,,,,,
COc1c(I)cc(CN2C(=O)C(=O)c3cc(OC(F)(F)F)ccc32)cc1I [GK-1-44],,,,,114 ± 19.2,78.5 ± 11.1,105 ± 10.6,2.47 ± 0.22,1.67 ± 0.11,0.37 ± 0.04,10,
COc1c(Br)cc(CN2C(=O)C(=O)c3cc(OC(F)(F)F)ccc32)cc1Br [GK-1-48],,,,,134 ± 16.5,80.1 ± 11.7,109 ± 11.9,3.04 ± 0.47,1.66 ± 0.07,0.15 ± 0.01,3,significant increase in angular velocity
COc1c(Br)cc(Cn2cc(C(=O)O)c(=O)c3ccccc32)cc1Br [GK-1-50],,,,,124 ± 21.8,87.9 ± 10.7,107 ± 11.2,2.77 ± 0.49,1.11 ± 0.12,0.47 ± 0.10,10,

# Source: US20260109674A1, “ALLOSTERIC MODULATION OF MUSCARINIC ACETYLCHOLINE RECEPTOR EFFICACY” (The University of Toledo, priority 2022, published 2026)
